Measured values: patent US20110003751A1, “Novel Immunoregulatory Peptides, Compositions and Uses Thereof” (priority 2007, published 2011)

Test system: CFU-S regeneration in the bone marrow of 1-Gy irradiated mice
Assay: Stimulation of CFU-S regeneration in bone marrow of 1-Gy irradiated mice (spleen colony count)
Format: in vivo
Experimental: Test animals were irradiated with ^60Co gamma-rays at a dose rate of 0.8 Gy per min. Bone marrow recipients were irradiated with a dose of 8 Gy; donors were irradiated with a dose of […]. The suspension of bone marrow cells of intact animals was irradiated with 1 Gy, 5-10 min prior to injection to lethally irradiated recipients.
Stimulation of CFU-S regeneration in the bone marrow of 1-Gy irradiated mice was studied with different routes of administration of the peptides.
For this purpose, at least 5 mice from each group were killed and their bone marrow was obtained. Cell suspension was prepared and injected to lethally irradiated mice. After 9 days, spleen colonies were counted to determine the CFU-S content in 1-Gy irradiated donors who received the peptide.

[1] = per os (oral gavage), 100 ug/kg, 30 min after injection of bone marrow suspension, average of two tests
[2] = intraperitoneally, 100 ug/kg, 30 min after injection of bone marrow suspension, average of two tests

| Substance | Colony count [1] | Activity % (per os, 100 ug/kg) [%] | Stimulation index (per os, 100 ug/kg) | Activity % (intraperitoneally, 100 ug/kg) [%] | Stimulation index (intraperitoneally, 100 ug/kg) | Colony count [2] | % stimulation (IP, 10 ug/kg) [%] | Colony count (IP, 10 ug/kg) | % stimulation (IP, 100 ug/kg (Table 4)) [%] | Colony count (IP, 100 ug/kg (Table 4)) | % stimulation (IP, 1000 ug/kg) [%] | Colony count (IP, 1000 ug/kg) | % stimulation (per/os, 10 ug/kg) [%] | Colony count (per/os, 10 ug/kg) | % stimulation (per/os, 100 ug/kg (Table 4)) [%] | Colony count (per/os, 100 ug/kg (Table 4)) | % stimulation (per/os, 1000 ug/kg) [%] | Colony count (per/os, 1000 ug/kg) |
| --- | --- | --- | --- | --- | --- | --- | --- | --- | --- | --- | --- | --- | --- | --- | --- | --- | --- | --- |
| H-L-Ile-D-Glu-D-Trp-OH [reference compound] | 5.8 ± 0.3 | 0 | 0 |  |  |  |  |  |  |  |  |  |  |  |  |  |  |  |
| H-L-Leu-L-γ-Glu-L-Trp-OH | 6.7 ± 0.7 | 67 | 0.7 | 69 | 0.7 | 6.9 ± 0.6 |  |  |  |  |  |  |  |  |  |  |  |  |
| H-L-Ile-γ-Glu-L-Trp-OH | 8.6 ± 0.7 | 83 | 0.8 | 84 | 0.8 | 8.6 ± 0.7 | 64 | 7.6 ± 0.7 | 69 | 8.2 ± 00.4 | 87 | 10.4 ± 00.6 | 0 | 6.9 ± 0.7 | 70 | 8.3 ± 0.4 | 90 | 10.7 ± 00.8 |
| H-L-Trp-L-Glu-L-Ile-OH [reference compound] | 5.9 ± 0.8 | 0 | 0 | 79 | 0.8 | 8.1 ± 1.0 |  |  |  |  |  |  |  |  |  |  |  |  |
| H-L-γ-Glu-D-Trp-L-Ile-OH | 6.8 ± 0.5 | 66 | 0.7 | 61 | 0.6 | 6.2 ± 0.5 |  |  |  |  |  |  |  |  |  |  |  |  |
| H-L-γ-Glu-L-Trp-L-Ile-OH | 7.7 ± 0.6 | 75 | 0.7 | 73 | 0.7 | 7.5 ± 0.5 |  |  |  |  |  |  |  |  |  |  |  |  |
| H-L-Ile-L-Glu-L-Trp-OH [reference compound] | 5.6 ± 0.5 | 0 | 0 | 80 | 0.8 | 8.2 ± 0.5 | 82 | 9.7 ± 0.4 | 81 | 9.6 ± 0.7 | 100 | 11.8 ± 00.9 |  |  | 0 | 6.7 ± 0.5 | 0 | 6.1 ± 00.3 |
| H-L-Leu-L-Glu-L-Trp-OH [reference compound] | 6.2 ± 0.3 | 0 | 0 | 74 | 0.7 | 7.6 ± 0.7 |  |  |  |  |  |  |  |  |  |  |  |  |
